{"source": "patent US20070042937A1", "about": "“Inhibitors of 2-oxoglutarate dioxygenase as gamma globin inducers” (FibroGen, Inc., priority 2003, published 2007)", "key": {"[1]": {"tested_on": "K562 cells", "details": "4 days, 20 μM, FIG. 2"}, "[2]": {"tested_on": "CD34+ human bone marrow progenitor cells", "details": "for increase in HbF expression over untreated controls: added to both Phases I and II; for increase in HbF expression as assessed by MFI: compound alone, only during Phase II; for increase in HbF expression: CD34+ progenitor cell cultures, single assay, single cultures, FIG. 6; for increase in HbF synthesis compared to vehicle controls: added during EPO-dependent Phase II, FIG. 3A"}, "[3]": {"tested_on": "CD34+ human bone marrow progenitor cells", "details": "FIG. 4B; for total hemoglobin in the cultures: compound alone", "procedure": "Following phase I and II of the culture period, cells were harvested and approximately 1-2×10^5 cells were placed into round-bottom 96-well microtiter plates for each flow cytometry sample. The assay buffer for all washes and the diluent used for antibodies is PBS containing 0.1% BSA.\nFor HbF and Hb-specific immunolabeling, cells were pelleted by centrifugation at 1200 rpm for 2 minutes in a swinging bucket centrifuge (Beckman Coulter, Fullerton Calif.) with adaptors for microtiter plates, and the supernatant was aspirated. The cells were resuspended and lightly fixed in 100 ml of buffer containing 0.05% glutaraldehyde for 10 minutes, followed by addition of 100 ml of buffer and pelleting by centrifugation exactly as described above. The cells were washed two more times (for a total of 2.5 washes) before resuspension in buffer containing 1% Triton-X 100 for 5 min, to permeabilize the cells and enable penetration of antibodies. Following an additional 2.5 washes as described, cells were resuspended with 100 ml of buffer containing antibodies specific for HbF or the appropriate monoclonal isotype control (Caltag Laboratories, Burlingame Calif.), or total Hb and the matched polyclonal isotype control (BiosPacific, Emeryville Calif.).\nThe antibodies for HbF and isotype-matched control were directly conjugated to fluorochromes, so after antibody incubation the cells were washed as above before fixation in 1% formaldehyde, and stored at 4° C. in the dark until analysis. […] After an additional 2.5 washes, cells were fixed in 1% formaldehyde and stored at 4° C. in the dark until analysis."}, "[4]": {"tested_on": "CD34+ human bone marrow progenitor cells", "assay": "Percent HbF-positive cells (F-cells) in CD34+ bone marrow progenitor cell cultures by flow cytometry", "details": "for increase in F-cells over untreated cultures / increase in F-cells over untreated cultures, in combination with HU: CD34+ cells, only during Phase II, FIG. 3B; for increase in F-cells over untreated cultures, in combination with HU: in combination with 5 μM HU"}, "[5]": {"tested_on": "γ-globin", "assay": "γ-globin mRNA expression in K562 cells by quantitative PCR, normalized to 18S rRNA", "format": "cell-based, human", "details": "FIG. 1A", "description": "For studies utilizing the human erythroleukemia K562 cell line (ATCC), cells were grown and cultured in complete medium (RPMI 1640, 10% fetal calf serum (FCS), 100 U/ml penicillin and 0.1 mg/ml streptomycin) in a humidified incubator at 37° C., 95% air, 5% CO2-HPIs were titrated into duplicate cultures at dosage levels spanning more than 100-fold differences in concentration, and incubated from 24 to 96 hours prior to harvesting and quantitation of F-cells and HbF levels by flow cytometry.\nEach PCR run included a standard curve and water blank. In addition, a melt curve was run after completion of each PCR run to assess the specificity of the amplification. γ-globin gene expression was normalized relative to the expression level of 18S ribosomal RNA for each sample."}}, "note": "Read-outs that look alike come from different tables or passages of the source."}
{"smiles": "O=C(O)CNC(=O)c1nc(Cl)c2ccccc2c1O", "note": "[HPI-1, N-((1-chloro-4-hydroxy-isoquinoline-3-carbonyl)-amino)-acetic acid]", "values": [{"measurement": "increase in HbF synthesis compared to negative control cultures", "setting": "[1]", "value": "23-52%"}, {"measurement": "HbF expression (MFI for HbF) when used together with HU", "setting": "[2]; 20 μM plus HU, FIG. 5B", "value": "additive"}, {"measurement": "HbF expression as measured by MFI for HbF, compared to vehicle control (DMSO)", "setting": "[2]; 20 μM, triplicate, FIG. 5B", "value": "increased"}, {"measurement": "increase in HbF expression over untreated controls", "setting": "[2]; CD34+ cells, 10 μM", "value": 12, "unit": "%"}, {"measurement": "increase in HbF expression over untreated controls", "setting": "[2]; CD34+ cells, 20 μM", "value": 47, "unit": "%"}, {"measurement": "increase in HbF expression as assessed by MFI", "setting": "[2]; CD34+ cells", "value": 36, "unit": "%"}, {"measurement": "total hemoglobin, co-treatment with HU or butyrate", "setting": "[3]; co-treatment with HPI-1 and HU or butyrate", "value": "no significant change"}, {"measurement": "total hemoglobin in the cultures", "setting": "[3]", "value": "did not cause a general increase"}, {"measurement": "HbF expression (percent F-cells) when used together with HU", "setting": "[4]; 20 μM plus HU, FIG. 5A", "value": "additive"}, {"measurement": "HbF expression as measured by percent F-cells, compared to vehicle control (DMSO)", "setting": "[4]; 20 μM, triplicate, FIG. 5A", "value": "increased"}, {"measurement": "increase in F-cells over untreated cultures", "setting": "[4]; compound alone", "value": 29, "unit": "%"}, {"measurement": "increase in F-cells over untreated cultures, in combination with HU", "setting": "[4]", "value": 58, "unit": "%"}, {"measurement": "increase in F-cells", "setting": "[4]; CD34+ progenitor cells, 20 μM, FIG. 4A", "value": 50, "unit": "%"}, {"measurement": "F-cells, co-treatment with HU or butyrate", "setting": "[4]; CD34+ progenitor cells, co-treatment with HPI-1 and HU or butyrate, FIG. 4A", "value": "additive increase"}]}
{"smiles": "O=C(O)CNC(=O)c1ncc2cc(Br)ccc2c1O", "note": "[HPI-2, [(7-Bromo-4-hydroxy-isoquinoline-3-carbonyl)-amino]-acetic acid]", "values": [{"measurement": "increase in HbF synthesis compared to negative control cultures", "setting": "[1]", "value": 77, "unit": "%"}, {"measurement": "increase in HbF expression over controls", "setting": "[2]; CD34+ cells, added during both phases, concentration not given", "value": 40, "unit": "%"}, {"measurement": "increase in HbF expression as assessed by MFI", "setting": "[2]; CD34+ cells", "value": 5, "unit": "%"}, {"measurement": "increase in HbF expression", "setting": "[2]", "value": "about 10%"}, {"measurement": "increase in F-cells over untreated cultures", "setting": "[4]; compound alone", "value": 12, "unit": "%"}, {"measurement": "increase in F-cells over untreated cultures, in combination with HU", "setting": "[4]", "value": 29, "unit": "%"}]}
{"smiles": "COc1ccc2c(O)c(C(=O)NCC(=O)O)nc(Cl)c2c1", "note": "[HPI-3, [(1-Chloro-4-hydroxy-7-methoxy-isoquinoline-3-carbonyl)-amino]-acetic acid]", "values": [{"measurement": "increase in HbF expression", "setting": "[2]", "value": "about 10%"}]}
{"smiles": "O=C(O)CNC(=O)c1nc2cc(Cl)ccc2cc1O", "note": "[HPI-4, [(7-Chloro-3-hydroxy-quinoline-2-carbonyl)-amino]-acetic acid]", "values": [{"measurement": "increase in HbF expression", "setting": "[2]", "value": 56, "unit": "%"}]}
{"smiles": "CC(C)Oc1ccc2nc(C(=O)NCC(=O)O)c(O)cc2c1", "note": "[HPI-5, [(3-Hydroxy-6-isopropoxy-quinoline-2-carbonyl)-amino]-acetic acid]", "values": [{"measurement": "increase in HbF expression", "setting": "[2]", "value": 75, "unit": "%"}]}
{"smiles": "O=C(O)CNC(=O)c1ncc2cc(Sc3ccccc3)ccc2c1O", "note": "[HPI-6, [(4-Hydroxy-7-phenylsulfanyl-isoquinoline-3-carbonyl)-amino}-acetic acid]", "values": [{"measurement": "expression of the gene encoding γ-globin", "setting": "[5]; 3 days, 0, 3, 4.5, 10, 12.5 or 20 μM", "value": "increased in a dose-dependant manner"}, {"measurement": "γ-globin expression with further addition of hydroxyurea", "setting": "[5]; 3 days, plus 100 μM HU, especially at lower concentrations", "value": "augmented"}]}
{"smiles": "NC(=O)NO", "note": "[HU, hydroxyurea, reference compound]", "values": [{"measurement": "increase in HbF synthesis compared to vehicle controls", "setting": "[2]; CD34+ cells", "value": 50, "unit": "%"}, {"measurement": "total hemoglobin in the cultures", "setting": "[3]", "value": "increases"}, {"measurement": "F-cells", "setting": "[4]; CD34+ progenitor cells, compound alone, FIG. 4A", "value": "increases"}]}
{"smiles": "CCCC(=O)O", "note": "[butyrate, reference compound]", "values": [{"measurement": "increase in HbF synthesis compared to vehicle controls", "setting": "[2]; CD34+ cells", "value": 85, "unit": "%"}]}
